In patent US8481459B2, “Chemical inhibitors of ethylene biosynthesis” (Academia Sinica, priority 2010, dated 2013):
“Also recorded” adds a separate entry of the source.

Columns and labels:
[1] = test system: etiolated eto1-4 seedlings; experiment: Triple response phenotype / hypocotyl length of etiolated eto1-4 seedlings; assay type: in vivo, Arabidopsis thaliana; conditions: for ranking in both hypocotyl length and ethylene level assays / suppression of the eto1-4 (triple response) phenotype: 10 μM; for ranking in both hypocotyl length and ethylene level assays: etiolated eto1-4, FIG. 3; for suppression of the eto1-4 (triple response) phenotype: germinated in the dark for 3 days; for effectiveness in phenotypical assay: etiolated eto1-4 seedlings; for concentration at which hypocotyl elongation becomes visible / concentration reaching maximal / nearly saturated effect on hypocotyl: eto1-4, 3 days in the dark, dose series
Procedure: All mutants and transgenic plants were derived from the wild-type Arabidopsis thaliana Columbia ecotype (Col-0) and cultivated under a long-day condition (16-h light/8-h dark at 22° C.) under exemplary e light (100-150 μE m^−2 s^−1). A reporter construct, 5×EBS::LUC (a generous gift from Drs. Hai Li and Anna N. Stepanova, Salk Institute, USA), containing 5 copies of EIN3 binding sequence (EBS) fused with luciferase gene (LUC) was transformed to eto1-4 and subsequently used for screening compounds of a chemical library. Ethylene mutants eto1-4, eto2-1, ctr1-1 and the EIN3 overexpression line (35S::EIN3) were described previously (Solano, et al. (1998) Genes Dev 12, 3703-3714). Seeds were sterilized with 30% bleach for 6 min and sown in half-strength Murashige and Skoog (0.5×MS) medium supplemented with 0.8% agar and stratified in the dark at 4° C. for 3-4 days before germination. For analysis of the triple response phenotype, stratified seeds were grown in the dark at 22° C. for 3 days before scoring the phenotype.
A DIVERSet library (ChemBridge Inc.) containing 10,000 small molecules (in DMSO) was used for chemical screening. Three rounds of chemical screenings were carried out in 0.5×MS agar medium containing individual chemicals in each well of 96- and 24-well micro-titer plates. The initial screening was performed by sowing 10 to 15 seeds in the wells of micro-titer plates containing small molecules at 50 μM to score the long-hypocotyl phenotype. For the second and third screenings, we used 25 μM of small molecules selected from the first round of screening to score and confirm the phenotype. The seedling phenotype was scored by use of a digital camera attached to a Zeiss stereomicroscope (SteREO V8), and quantitation of hypocotyl length was performed by use of NIH Image J software. AVG and silver thiosulfate (STS, by mixing silver nitrate and sodium thiosulfate at a 1:4 molar ratio immediately before use) were obtained from Sigma and used as controls to suppress ethylene biosynthesis and perception, respectively. Agar medium was supplemented with 1-aminocyclopropane-1-carboxylic acid (10 μM, Merck) to induce the triple response in etiolated seedlings.
Shortened hypocotyls in etiolated seedlings is one of the triple response phenotypes (Guzman, et al. (1990) Plant Cell 2, 513-523; Wang, et al. (2004) Nature 428, 945-950). Two chemical compounds negating ethylene response, AVG and STS, were included as a control for comparison.

[2] = test system: etiolated eto2-1 seedlings; experiment: Hypocotyl length of etiolated eto2-1 seedlings; assay type: in vivo, Arabidopsis thaliana; conditions: 30 μM
Procedure: Seeds of eto1-4 and eto2-1 were germinated in the dark in the absence (−) or presence (+) of different concentrations (10, 20 or 30 μM) of exemplary invention compounds and AVG. The length of hypocotyls and ethylene levels were quantified in 3-day-old etiolated seedlings. Data represent means±SE (n>40), and the experiments were repeated 3 times with similar results.
Therefore, ACC oxidase as the primary target of exemplary the exemplary invention compounds can be excluded. To determine whether the exemplary invention compounds are inhibitors of ACC synthase, the following assays were used. First, the hypocotyl length and ethylene level in the dominant eto2-1 mutant were analyzed, which bears a missense mutation at the 3′ terminus of ACS5 to generate a mutated yet functional protein, ACS5^eto2-1. […] Second, the effect of exemplary invention compounds on the enzymatic activity of recombinant Arabidopsis ACS5 protein by an in vitro ACS activity assay was analyzed (Chae, et al. (2003) Plant Cell 15, 545-559; Savaldi-Goldstein, et al. (2008) Proc Natl Acad Sci USA 105, 15190-15195).

[3] = target: T1, recombinant Arabidopsis ACS5 (Arabidopsis thaliana, UniProt Q37001); experiment: Enzyme kinetics assay of ACS5 (Lineweaver-Burk); assay type: biochemical; set-up: Vmax of recombinant ACS5 in the presence of inhibitor: unit not given here
T1 construct: The full-length cDNA of Arabidopsis ACS5 (At5g65800) was cloned to pETDuet (Novagen); 6His (N); made in house; host or cells: E. coli BL21-CodonPlus (Stratagene)
T1 sequence (Q37001 1-470): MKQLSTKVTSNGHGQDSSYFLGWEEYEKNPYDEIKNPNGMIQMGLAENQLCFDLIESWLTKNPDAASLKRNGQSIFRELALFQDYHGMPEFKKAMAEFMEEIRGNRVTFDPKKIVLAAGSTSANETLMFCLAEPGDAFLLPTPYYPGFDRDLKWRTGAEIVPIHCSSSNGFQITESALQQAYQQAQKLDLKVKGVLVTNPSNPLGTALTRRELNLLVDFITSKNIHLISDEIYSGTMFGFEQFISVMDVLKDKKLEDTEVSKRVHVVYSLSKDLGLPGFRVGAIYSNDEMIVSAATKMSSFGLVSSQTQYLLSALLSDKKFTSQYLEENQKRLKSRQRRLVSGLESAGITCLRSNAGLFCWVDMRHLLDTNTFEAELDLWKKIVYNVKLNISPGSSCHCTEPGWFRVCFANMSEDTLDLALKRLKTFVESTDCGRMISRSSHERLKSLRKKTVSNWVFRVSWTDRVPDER
Procedure: For the enzyme kinetics assay, different concentrations of SAM (20, 40, 60, 80, 100, 150, and 200 μM) were used to determine the Km and Vmax of purified recombinant ACS5. In addition, two concentrations, 0.05 and 0.1 μM, of AVG and compound 7303 were tested to determine the inhibition constant Ki. Reactions of enzyme kinetics assay were performed by first incubating chemical inhibitors or DMSO with different concentrations of SAM in 20-mL GC vials, then 1.6 μg purified ACS5 was added to initiate the enzyme reaction for 30 min at 25° C. Gas chromatography was used to quantitate the levels of ethylene chemically converted from ACC as described previously. Data analysis of enzyme kinetics assays and preparation of Lineweaver-Burk plots were done by SIGMAPLOT (Systat Software Inc.).
Because the exemplary invention compounds and AVG have distinct chemical structures (Table 1), they may use different mechanisms to inhibit ACC synthase. To clarify this issue, compound 7303 was selected as a representative of the exemplary invention compounds for enzyme kinetic assay to determine the inhibitory mechanism. […] Data from the enzyme kinetic assay support that the exemplary invention compounds are novel inhibitors of ACC synthase different from AVG and show uncompetitive inhibition in ACS activity.

Structure (SMILES)	ranking in both hypocotyl length and ethylene level assays [1]	suppression of the eto1-4 (triple response) phenotype [1]	effectiveness in phenotypical assay [1]	concentration at which hypocotyl elongation becomes visible [1] [µM]	concentration reaching maximal / nearly saturated effect on hypocotyl [1] [µM]	suppression in hypocotyl length [2] [%]	Vmax of recombinant ACS5 in the presence of inhibitor ([3]; 0.1 μM inhibitor, without inhibitor 95.1±5.0)	inhibition pattern (mechanism) ([3]; Lineweaver-Burk plot, 0.05 and 0.1 μM)	Vmax ([3]; kinetic parameters of recombinant ACS5 fitted for the inhibitor series, substrate SAM) [µmol/h/mg]	Ki ([3]; recombinant ACS5, inhibitor at 0.05 and 0.1 μM, read-out: calculated inhibition constant (Ki)) [nM]
COc1ccc(C2CC(=O)c3cnc(Nc4ccccc4)nc3C2)cc1 (stereo not drawn) [Compound 7303]	most effective	Suppression; also recorded: effect comparable to that of compounds 9393 and 9370	highly effective; also recorded: the most effective	0.1	5	25	50.5±1.2	uncompetitive inhibitor	92.4	98.4 ± 6.7
Cc1ccc(C2CC(=O)c3cnc(NC4CCCC4)nc3C2)cc1 (stereo not drawn) [Compound 9370]	most effective	Suppression; also recorded: effectiveness comparable to that of silver nitrate	highly effective	0.1	5					
CC1(C)CC(=O)c2cnc(NC3CCCC3)nc2C1 [Compound 9393]	most effective	Suppression; also recorded: effectiveness comparable to that of silver nitrate	highly effective							
